The values that follow come from patent US10183021B2, “sGC stimulators” (Ironwood Pharmaceuticals, Inc., priority 2013, dated 2019).

The test deals with soluble guanylate cyclase (sGC) (Homo sapiens (Human), UniProt Q02108+Q02153). Description: sGC-HEK-cGMP assay with SNP incubation, LC/MS detection (Example 2A). Format: cell-based. The conditions noted are these: HEK293 cells, 10 μM SNP, LC/MS detection; for Emax: 100% = BAY 41-2272 at 10 μM, read-out: HEK assay Emax - unconstrained (%); for EC50: top of curve not fitted to 100%, read-out: HEK assay EC50 - unconstrained. On the procedure: Human embryonic kidney cells (HEK293), endogenously expressing soluble guanylate cyclase (sGC), were used to evaluate the activity of test compounds. Compounds stimulating the sGC receptor should cause an increase in the intracellular concentration of cGMP. HEK 293 cells were seeded in Dulbecco's Modification of Eagle's Medium supplemented with fetal bovine serum (10% final) and L-glutamine (2 mM final) in a 200 L volume at a density of 1×10^5 cells/well in a poly-D-lysine coated 96 well flat bottom plate and grown overnight at 37° C. Medium was aspirated and cells were washed with 1× Hank's Buffered Saline Salt Solution (200 μL). Cells were then incubated for 15 minutes at 37° C. with 200 μL of a 0.5 mM 3-isobutyl-1-methylxanthine (IBMX) solution. Test article and sodium nitroprusside solutions (x μM concentration for test article solution and 10 μM concentration for SNP solution; wherein x is one of the following concentrations: 30 μM, 10 μM, 3 μM, 1 μM, 0.3 μM, 0.1 μM, 0.03 μM, 0.01 μM, 0.003 μM, 0.001 μM, 0.0003 μM or 0.0001 μM) were then added to the assay mixture (2 μL each) and the resulting mixture incubated at 37° C. for 10 minutes. After the 10 minute incubation, the assay mixture was aspirated and 0.1M HCl (200 μL) was added to the cells. The plate was incubated at 4° C. for 30 minutes in the 0.1M HCl to stop the reaction and lyse the cells. The plates were then centrifuged at 1,200 g for 5 minutes at room temperature. Supernatants were collected and transferred to a new flat bottom 96 well plate for analysis by HPLC-MS. Vehicle controls were carried out using DMSO (1%) solutions. A known sGC stimulator, BAY 41-2272, was used as the positive control. Samples were diluted with an equal volume of 1 M Ammonium Acetate (pH 7) to neutralize samples for better chromatography. A 2× cGMP standard solution was prepared in 0.1 M HCl and then diluted with an equal volume of 1 M Ammonium Acetate, with the following final concentrations in nM: 1024, 512, 256, 128, 64, 32, 16, 8, 4, 2, 1. cGMP concentrations in the test plates were determined from each sample using the LC/MS conditions shown in Table 2 below and the calculated cGMP standard curve. EC50 values were calculated from concentration-response curves generated with GraphPad Prism Software. Data were normalized to a high control using the following equation: 100*(Sample−Low Control)/(High Control−Low Control), where the low control is the average of 6 samples treated with 1% DMSO, and the high control is the average of 8-12 samples treated with 10 uM BAY 41-2272. Data were fit using a non-linear regression, sigmoidal dose response, 3 parameter fits.
Chain of soluble guanylate cyclase (sGC) (Q02153 whole entry): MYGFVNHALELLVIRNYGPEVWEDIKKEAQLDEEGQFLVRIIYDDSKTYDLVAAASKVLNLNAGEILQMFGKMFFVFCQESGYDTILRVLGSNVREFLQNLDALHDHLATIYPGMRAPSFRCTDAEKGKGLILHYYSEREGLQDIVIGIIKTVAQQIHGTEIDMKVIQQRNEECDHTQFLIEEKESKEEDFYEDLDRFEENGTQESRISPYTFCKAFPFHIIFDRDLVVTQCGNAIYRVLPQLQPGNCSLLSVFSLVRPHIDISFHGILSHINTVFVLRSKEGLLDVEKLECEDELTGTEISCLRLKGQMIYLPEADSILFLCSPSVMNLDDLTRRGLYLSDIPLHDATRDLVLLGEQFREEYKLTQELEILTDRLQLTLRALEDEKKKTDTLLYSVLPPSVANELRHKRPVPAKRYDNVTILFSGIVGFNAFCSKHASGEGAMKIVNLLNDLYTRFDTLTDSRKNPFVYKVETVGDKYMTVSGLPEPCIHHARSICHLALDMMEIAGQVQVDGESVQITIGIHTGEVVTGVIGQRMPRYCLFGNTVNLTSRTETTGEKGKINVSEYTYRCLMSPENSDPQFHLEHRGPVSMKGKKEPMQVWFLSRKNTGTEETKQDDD
Chain of soluble guanylate cyclase (sGC) (Q02108 whole entry): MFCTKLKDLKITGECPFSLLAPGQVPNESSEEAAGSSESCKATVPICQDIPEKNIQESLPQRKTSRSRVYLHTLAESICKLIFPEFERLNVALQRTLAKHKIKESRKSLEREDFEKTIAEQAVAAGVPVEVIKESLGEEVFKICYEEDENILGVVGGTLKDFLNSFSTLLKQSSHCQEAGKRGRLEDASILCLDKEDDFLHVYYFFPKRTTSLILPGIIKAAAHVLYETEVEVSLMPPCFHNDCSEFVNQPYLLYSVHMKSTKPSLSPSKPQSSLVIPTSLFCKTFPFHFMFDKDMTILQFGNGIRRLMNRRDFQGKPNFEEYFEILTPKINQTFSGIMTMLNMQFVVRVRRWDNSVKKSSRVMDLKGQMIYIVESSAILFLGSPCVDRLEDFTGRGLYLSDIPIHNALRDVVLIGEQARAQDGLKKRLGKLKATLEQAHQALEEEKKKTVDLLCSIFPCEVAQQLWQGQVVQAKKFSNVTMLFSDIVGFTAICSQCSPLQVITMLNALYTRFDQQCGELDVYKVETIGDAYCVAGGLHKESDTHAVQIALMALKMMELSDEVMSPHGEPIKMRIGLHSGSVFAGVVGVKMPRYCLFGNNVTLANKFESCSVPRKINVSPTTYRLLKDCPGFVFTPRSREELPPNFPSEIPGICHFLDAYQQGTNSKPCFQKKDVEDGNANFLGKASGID

On to `CN(C)CCNc1nc(-c2cc(-c3ccon3)n(Cc3ccccc3F)n2)ncc1F` [Compound I-7], for which the Emax – broadly, the maximal effect, on the per cent scale that the assay sets – lay in the range of 40 to 60% and the EC50 – broadly, the concentration needed to bring the measured effect to its halfway point – lay within 1000 to 5000 nM.

On to `CN(C)c1nc(-c2cc(-c3ccon3)n(Cc3ccccc3F)n2)ncc1F` [Compound I-8], for which the Emax fell in the range of 60 to 80% and the EC50 fell in the range of 100 to 500 nM.

For `Fc1ccccc1Cn1nc(-c2ncc(F)c(NC3CCCCC3)n2)cc1-c1ccon1` [Compound I-9], the Emax lay within 80 to 100% and the EC50 lay within 100 to 500 nM.

As to `CC(C)(C)OC(=O)N1CCC(Nc2nc(-c3cc(-c4ccon4)n(Cc4ccccc4F)n3)ncc2F)CC1` [Compound I-12], the Emax fell in the range of 100 to 120% and the 50% effective concentration (EC50) lay in the range of 1000 to 5000 nM.

As for `OC[C@@H]1CCCN1c1nc(-c2cc(-c3ccon3)n(Cc3ccccc3F)n2)ncc1F` [Compound I-13], the Emax was 60 to 80% and the half-maximal effective concentration (EC50) fell in the range of 100 to 500 nM.

Turning to `COC1CCN(c2nc(-c3cc(-c4ccon4)n(Cc4ccccc4F)n3)ncc2F)C1` (stereo not drawn) [Compound I-17], the Emax fell in the range of 60 to 80% and the EC50 lay in the range of 100 to 500 nM.

`OC1CCCN(c2nc(-c3cc(-c4ccon4)n(Cc4ccccc4F)n3)ncc2F)C1` (stereo not drawn) [Compound I-18]: the Emax lay within 60 to 80%.

Regarding `OC1CCN(c2nc(-c3cc(-c4ccon4)n(Cc4ccccc4F)n3)ncc2F)C1` (stereo not drawn) [Compound I-20], the Emax lay within 60 to 80% and the EC50 lay within 100 to 500 nM.

Consider `CC(C)(C)OC(=O)NC1CN(c2nc(-c3cc(-c4ccon4)n(Cc4ccccc4F)n3)ncc2F)C1` [Compound I-21, tert-butyl (1-(5-fluoro-2-(1-(2-fluorobenzyl)-5-(isoxazol-3-yl)-1H-pyrazol-3-yl)pyrimidin-4-yl)azetidin-3-yl)carbamate], for which the Emax was in the range of 40 to 60% and the EC50 fell in the range of 100 to 500 nM.

`COC1CCN(c2nc(-c3cc(-c4ccon4)n(Cc4ccccc4F)n3)ncc2F)CC1` [Compound I-22]: the maximal response (Emax) fell in the range of 60 to 80% and the EC50 was in the range of 100 to 500 nM.

Consider `CC(C)(C)OC(=O)NC1CCCN(c2nc(-c3cc(-c4ccon4)n(Cc4ccccc4F)n3)ncc2F)C1` (stereo not drawn) [Compound I-25], for which the Emax is 40 to 60% and the EC50 lay in the range of 500 to 1000 nM.

As for `CC(C)(C)OC(=O)N1CC(Nc2nc(-c3cc(-c4ccon4)n(Cc4ccccc4F)n3)ncc2F)C1` [Compound I-26], the Emax was in the range of 60 to 80% and the concentration giving a half-maximal response (EC50) is 100 to 500 nM.

As to `CC(C)(C)OC(=O)N1CCCC(Nc2nc(-c3cc(-c4ccon4)n(Cc4ccccc4F)n3)ncc2F)C1` (stereo not drawn) [Compound I-27], the maximal effect (Emax) fell in the range of 60 to 80% and the concentration for a half-maximal effect (EC50) was in the range of 500 to 1000 nM.

With `Fc1ccccc1Cn1nc(-c2ncc(Cl)c(N3CCOCC3)n2)cc1-c1ccon1` [Compound I-28], the Emax was in the range of 60 to 80% and the EC50 was in the range of 1000 to 5000 nM.

As to `O=C1CC2(CCN(c3nc(-c4cc(-c5ccon5)n(Cc5ccccc5F)n4)ncc3F)CC2)CN1` [Compound I-30], the Emax lay within 80 to 100% and the EC50 fell in the range of 100 to 500 nM.

For the compound `O=C(CNc1nc(-c2cc(-c3ccon3)n(Cc3ccccc3F)n2)ncc1F)N1CCOCC1` [Compound I-31], the maximal effect (Emax) was 60 to 80% and the EC50 was 500 to 1000 nM.

Regarding `Fc1ccccc1Cn1nc(-c2ncc(F)c(N3CC4(COC4)C3)n2)cc1-c1ccon1` [Compound I-32], the Emax lay in the range of 60 to 80% and the EC50 lay within 100 to 500 nM.

For the compound `CC1COCCN1c1nc(-c2cc(-c3ccon3)n(Cc3ccccc3F)n2)ncc1F` (stereo not drawn) [Compound I-33], the Emax was in the range of 60 to 80% and the EC50 is 100 to 500 nM.

Consider `COC(=O)C1CCCN1c1nc(-c2cc(-c3ccon3)n(Cc3ccccc3F)n2)ncc1F` (stereo not drawn) [Compound I-34], for which the maximal effect (Emax) is 40 to 60% and the EC50 was 500 to 1000 nM.

In the case of `NC1CCCN(c2nc(-c3cc(-c4ccon4)n(Cc4ccccc4F)n3)ncc2F)C1` (stereo not drawn) [Compound I-37], the Emax fell in the range of 60 to 80% and the EC50 fell in the range of 1000 to 5000 nM.

As for `Fc1ccccc1Cn1nc(-c2ncc(F)c(NC3CNC3)n2)cc1-c1ccon1` [Compound I-38], the Emax lay in the range of 60 to 80% and the EC50 was in the range of 5000 to 10000 nM.

Take `NC1CN(c2nc(-c3cc(-c4ccon4)n(Cc4ccccc4F)n3)ncc2F)C1` [Compound I-40, 1-(5-fluoro-2-(1-(2-fluorobenzyl)-5-(isoxazol-3-yl)-1H-pyrazol-3-yl)pyrimidin-4-yl)azetidin-3-amine]: the Emax lay within 60 to 80% and the concentration giving a half-maximal response (EC50) lay within 1000 to 5000 nM.

With `O=C(O)C1CCCN1c1nc(-c2cc(-c3ccon3)n(Cc3ccccc3F)n2)ncc1F` (stereo not drawn) [Compound I-41], the Emax was in the range of 60 to 80%.

In the case of `Fc1ccccc1Cn1nc(-c2ncc(F)c(N3CCC4(CC3)COC4)n2)cc1-c1ccon1` [Compound I-42], the Emax was in the range of 80 to 100% and the EC50 lay within 100 to 500 nM.

Consider `Fc1ccccc1Cn1nc(-c2ncc(F)c(N3CCC4(CCOCC4)C3)n2)cc1-c1ccon1` [Compound I-43], for which the Emax lay in the range of 60 to 80% and the EC50 lay in the range of 1 to 100 nM.

Regarding `CC(C)(C)OC(=O)N1CCC2(CCN(c3nc(-c4cc(-c5ccon5)n(Cc5ccccc5F)n4)ncc3F)C2)C1` (stereo not drawn) [Compound I-45], the Emax is 40 to 60% and the EC50 was in the range of 1000 to 5000 nM.

With `NC1CCN(c2nc(-c3cc(-c4ccon4)n(Cc4ccccc4F)n3)ncc2F)C1` (stereo not drawn) [Compound I-46], the Emax is 60 to 80% and the EC50 is 1000 to 5000 nM.

For `Fc1ccccc1Cn1nc(-c2ncc(F)c(N3CCCC4(COC4)C3)n2)cc1-c1ccon1` [Compound I-47], the maximal effect (Emax) fell in the range of 40 to 60% and the EC50 is 100 to 500 nM.

As for `COC(=O)C1CCCCN1c1nc(-c2cc(-c3ccon3)n(Cc3ccccc3F)n2)ncc1F` (stereo not drawn) [Compound I-48], the Emax is 60 to 80% and the EC50 lay in the range of 1000 to 5000 nM.

For the compound `COC(=O)N(C(=O)OC)c1nc(-c2cc(-c3ccon3)n(Cc3ccccc3F)n2)ncc1F` [Compound I-52], the Emax is 60 to 80% and the EC50 lay in the range of 1000 to 5000 nM.

`Fc1ccccc1Cn1nc(-c2ncc(F)c(N3CCCC(F)C3)n2)cc1-c1ccon1` (stereo not drawn) [Compound I-56]: the Emax lay within 80 to 100% and the EC50 was in the range of 100 to 500 nM.

On to `CCN(CC)c1nc(-c2cc(-c3ccon3)n(Cc3ccccc3F)n2)ncc1F` [Compound I-60], for which the Emax fell in the range of 100 to 120% and the half-maximal effective concentration (EC50) lay in the range of 500 to 1000 nM.

`Fc1ccccc1Cn1nc(-c2ncc(F)c(N3CC(F)(F)C3)n2)cc1-c1ccon1` [Compound I-61]: the Emax lay within 80 to 100% and the 50% effective concentration (EC50) was in the range of 500 to 1000 nM.

`Fc1ccccc1Cn1nc(-c2ncc(F)c(N3CCC(F)(F)C3)n2)cc1-c1ccon1` [Compound I-63]: the Emax was in the range of 60 to 80% and the EC50 fell in the range of 100 to 500 nM.

`CC1(Nc2nc(-c3cc(-c4ccon4)n(Cc4ccccc4F)n3)ncc2F)CCOCC1` [Compound I-64]: the Emax is 80 to 100% and the EC50 was 1 to 100 nM.

For `CC(C)(C)Nc1nc(-c2cc(-c3ccon3)n(Cc3ccccc3F)n2)ncc1F` [Compound I-65], the Emax lay in the range of 60 to 80% and the EC50 lay in the range of 500 to 1000 nM.

`NC(=O)C1CCCN(c2nc(-c3cc(-c4ccon4)n(Cc4ccccc4F)n3)ncc2F)C1` (stereo not drawn) [Compound I-66]: the maximum response (Emax) is 60 to 80% and the EC50 lay in the range of 100 to 500 nM.

As to `O=C(O)[C@H](CO)Nc1nc(-c2cc(-c3ccon3)n(Cc3ccccc3F)n2)ncc1F` [Compound I-68], the Emax lay within 60 to 80% and the EC50 fell in the range of 5000 to 10000 nM.

`CCNC(=O)NC1CCCN(c2nc(-c3cc(-c4ccon4)n(Cc4ccccc4F)n3)ncc2F)C1` (stereo not drawn) [Compound I-70]: the Emax lay within 80 to 100% and the EC50 is 100 to 500 nM.

On to `CCNC(=O)NC1CN(c2nc(-c3cc(-c4ccon4)n(Cc4ccccc4F)n3)ncc2F)C1` [Compound I-71], for which the Emax was 60 to 80% and the EC50 lay in the range of 100 to 500 nM.

Take `O=S1(=O)CCN(C2CN(c3nc(-c4cc(-c5ccon5)n(Cc5ccccc5F)n4)ncc3F)C2)CC1` [Compound I-72]: the Emax was in the range of 60 to 80% and the EC50 was 100 to 500 nM.

On to `COc1cnc(-c2cc(-c3ccon3)n(Cc3ccccc3F)n2)nc1N1CCOCC1` [Compound I-73], for which the Emax lay within 40 to 60% and the 50% effective concentration (EC50) is 5000 to 10000 nM.

As for `Fc1ccccc1Cn1nc(-c2ncc(F)c(-n3cccn3)n2)cc1-c1ccon1` [Compound I-74], the Emax lay within 40 to 60% and the concentration for a half-maximal effect (EC50) is 1000 to 5000 nM.
